Consider 69 molecules from patent US20100081679A1, “DIAMINOPYRIMIDINES AS FUNGICIDES” (Bayer CropScience AG, priority 2007, published 2010).

This data set can be described thus: logP determination via retention times, calibrated with unbranched alkan-2-ones. Format: physicochemical.
The mark [1] stands for this setting: method **: HPLC reversed-phase C 18, 43° C., 0.1% aqueous phosphoric acid and acetonitrile, linear gradient 10% to 95% acetonitrile.
Setting [2] is: method *: HPLC reversed-phase C 18, temperature 40° C., mobile phase 0.1% aqueous formic acid and acetonitrile, linear gradient 10% to 95% acetonitrile.
Where [3] appears, read: HPLC on reversed-phase C18, method *: 40° C., 0.1% aqueous formic acid and acetonitrile, linear gradient 10% to 95% acetonitrile.
[4] abbreviates: HPLC on reversed-phase C 18, EEC Directive 79/831 Annex V.A8, method *: 40° C., 0.1% aqueous formic acid and acetonitrile, linear gradient 10% to 95% acetonitrile.
Where [5] appears, read: method *: HPLC reversed-phase C18, 40° C., 0.1% aqueous formic acid and acetonitrile, linear gradient 10% to 95% acetonitrile.
The mark [6] stands for this setting: method *: HPLC, reversed-phase C 18, 40° C., mobile phase 0.1% aqueous formic acid and acetonitrile, linear gradient from 10% to 95% acetonitrile.
[7] abbreviates: HPLC on reversed-phase C18 column (EEC Directive 79/831 Annex V.A8), method *: 40° C., 0.1% aqueous formic acid and acetonitrile, linear gradient 10% to 95% acetonitrile.
[8] abbreviates: HPLC reversed-phase C 18, EEC Directive 79/831 Annex V.A8, method *: 40° C., 0.1% aqueous formic acid and acetonitrile, linear gradient 10% to 95% acetonitrile.
Where [9] appears, read: HPLC on reversed-phase C18, method *: 40° C., mobile phase 0.1% aqueous formic acid and acetonitrile, linear gradient 10% to 95% acetonitrile.
Where [10] appears, read: HPLC reversed-phase C 18, EEC Directive 79/831 Annex V.A8, method **: 43° C., 0.1% aqueous phosphoric acid and acetonitrile, linear gradient 10% to 95% acetonitrile.

Marks after values point to notes of the source that are not given here.

In the case of `O=[N+]([O-])c1ccc(Nc2ncc(Cl)c(NC3CC3)n2)cc1` [compound 438], the logP under setting [1] is recorded as 2.9**.

With `N#Cc1cccc(Nc2ncc(F)c(NC3CC3)n2)c1` [compound 571], the logP under setting [2] is listed as 1.61*.

For the molecule `CC(C)(C)OC(=O)NCc1ccc(Nc2ncc(Cl)c(NCC3CC3)n2)cc1` [compound 162], under setting [3], the logP is listed as 2.21*.

As to `CC(C)(CF)C(=O)Nc1cccc(Nc2ncc(Br)c(NCC3CC3)n2)c1` [compound 467], under setting [4], the logP is on record as 1.99*.

As to `CC(C)COc1cccc(Nc2ncc(Br)c(NC3CC3)n2)c1` [compound 445], under setting [5], the logP is 3.36*. Regarding `CSc1ccc(Nc2ncc(C(F)(F)F)c(NC3CC3)n2)cc1` [compound 653], the logP runs as follows: (method **: HPLC reversed-phase C 18, temperature 43° C., mobile phase 0.1% aqueous phosphoric acid and acetonitrile, linear gradient 10% to 95% acetonitrile) 3.35**; under setting [2], 3.1*;.

Take `CC1CCCN1C(=O)c1cccc(Nc2ncc(Cl)c(NC3CC3)n2)c1` (stereo not drawn) [compound 1062]: the logP under setting [6] is 1.86*.

Regarding `Clc1cnc(Nc2ccccc2)nc1NCC1CC1` [Example 10], the logP under setting [1] is reported as 1.85**. Regarding `CC(C)(C)C(=O)Cc1ccc(Nc2ncc(Cl)c(NC3CC3)n2)cc1` [Example 59], the logP under setting [5] is recorded as 2.3*. Take `N#Cc1cc(Nc2ncc(Cl)c(NC3CC3)n2)ccc1N1CCCC1` [compound 439]: under setting [1], the logP is listed as 2.23**. On to `O=C1OCCN1c1ccc(Nc2ncc(C(F)(F)F)c(NC3CC3)n2)cc1` [compound 367], for which the logP by setting is: under setting [1], 2.04**; under setting [5], 1.94*;.

For `Clc1cnc(Nc2ccccc2)nc1NC1CC1` [Example 76], the logP under setting [5] is 1.84*. With `O=C1CCCN1c1ccc(Nc2ncc(Cl)c(NC3CC3)n2)cc1` [Example 34], the logP under setting [1] was 1.45**.

`FC(F)(F)c1cnc(Cl)nc1NC1CC1` [2-chloro-N-cyclopropyl-5-trifluoromethylpyrimidine-4-amine]: the chromatographic logP (pH 2.3, read-out: logP (pH2.3)) was determined as 2.39.

Consider `CS(=O)(=O)Nc1cccc(Nc2ncc(Cl)c(NC3CC3)n2)c1` [compound 242], for which the logP under setting [7] was 1.47*. Regarding `COCc1cccc(Nc2ncc(C(F)(F)F)c(NC3CC3)n2)c1` [compound 721], the logP under setting [3] is 2.78*. In the case of `COC(=O)c1cc(Nc2ncc(Cl)c(NC3CC3)n2)ccc1OC` [compound 1004], the logP under setting [6] is 1.58*. In the case of `CC(C)(C)NC(=O)c1cccc(Nc2ncc(Cl)c(NC3CC3)n2)c1` [compound 831], the logP under setting [8] is given as 2.07*. As to `O=S(=O)(c1cccc(Nc2ncc(Br)c(NCC3CC3)n2)c1)N1CCCCC1` [compound 454], the logP under setting [5] is given as 2.29*. Take `CCC(=O)Nc1cccc(Nc2ncc(C#N)c(NC3CC3)n2)c1` [compound 607]: the logP under setting [2] is listed as 1.94*. Take `CC(C)C(=O)Nc1cccc(Nc2ncc(Cl)c(NC3CC3)n2)c1` [Example 86]: the logP under setting [5] was 1.63*. Regarding `C=CCOc1cccc(Nc2ncc(Cl)c(NC3CC3)n2)c1` [compound 715], the logP under setting [3] is listed as 2.37*. `FC(F)(F)c1ccc(Nc2ncc(Cl)c(NC3CC3)n2)cc1` [compound 277]: under setting [9], the logP is 3.14*.

As for `Clc1cnc(Nc2cccc(C3CCNCC3)c2)nc1NC1CC1` [compound 727], under setting [3], the logP is 0.88*.

Regarding `CC(=O)c1cccc(Nc2ncc(Cl)c(NCC3CC3)n2)c1` [compound 13], the logP under setting [1] was 1.87**. As to `Cc1ccc(Nc2ncc(Br)c(NC3CC3)n2)cc1CC#N` [compound 820], under setting [8], the logP is 1.85*.

Take `O=C1CCCCN1c1cccc(Nc2ncc(Br)c(NC3CC3)n2)c1` [compound 733]: the logP under setting [3] was 1.55*. On to `CC(C)c1cccc(Nc2ncc(Cl)c(NCC3CC3)n2)c1` [compound 777], for which the logP under setting [8] is 2.71*.

For `CC(C)(C)NC(=O)Cc1cccc(Nc2ncc(Cl)c(NCC3CC3)n2)c1` [compound 561], the logP under setting [4] is 1.93*. On the same count and under the same terms, to `CCCOc1cccc(Nc2ncc(Cl)c(NC3CC3)n2)c1` [compound 531] belongs 2.64*. In the case of `O=C1CCCN1c1cccc(Nc2ncc(Cl)c(NC3(c4ccccc4Cl)CC3)n2)c1` [compound 323], the logP under setting [9] was 2.95*. The same measure, in the same setting: as for `CC(=O)c1ccc(Nc2ncc(Br)c(NC3CC3)n2)cc1` [compound 357], the figure is 2.09*. For the molecule `O=C1OCCN1c1cccc(Nc2ncc(C(F)(F)F)c(NC3CC3)n2)c1` [compound 834], the logP under setting [10] is reported as 2.18** and the logP under setting [8] is recorded as 2.18*;. For `CCCSc1cccc(Nc2ncc(Cl)c(NC3CC3)n2)c1` [compound 437], under setting [5], the logP is 3.33*. Consider `COC(=O)Nc1cccc(Nc2ncc(Cl)c(NCC3CC3)n2)c1` [compound 515], for which the logP under setting [4] is recorded as 1.66*.

In the case of `CN(C=O)c1ccc(Nc2ncc(Br)c(NCC3CC3)n2)cc1` [compound 490], under setting [4], the logP is recorded as 1.63*.

For `O=C(Nc1ccc(Nc2ncc(Br)c(NC3CC3)n2)cc1)C(F)(F)F` [compound 350], the logP under setting [9] is recorded as 1.97*. For the molecule `CC(C)CCSc1cccc(Nc2ncc(Cl)c(NC3CC3)n2)c1.Cc1ccc(S(=O)(=O)O)cc1` [compound 441], under setting [5], the logP was 4.24*.

Take `CC(C)(C)NS(=O)(=O)Cc1ccc(Nc2ncc(Cl)c(NC3CC3)n2)cc1` [compound 326]: the logP (HPLC on reversed-phase C18, method **: 43° C., mobile phase 0.1% aqueous phosphoric acid and acetonitrile, linear gradient 10% to 95% acetonitrile) is 1.99**. On to `Cc1cc(Cl)c(Br)cc1Nc1ncc(Cl)c(NC2CC2)n1` [compound 933], for which the logP under setting [3] is recorded as 3.46*. Consider `Clc1cnc(Nc2ccc3c(c2)OCO3)nc1NC1CC1` [compound 295], for which the logP under setting [9] is 1.59*. Turning to `Clc1cnc(Nc2cccc(OCCN3CCOCC3)c2)nc1NC1CC1` [compound 1040], under setting [6], the logP was 0.84*. With `CSC(C)c1cccc(Nc2ncc(C(F)(F)F)c(NCC3CC3)n2)c1` (stereo not drawn) [compound 827], the logP under setting [8] was 3.95*. With `Cc1ccccc1Nc1ncc(Cl)c(NC2CC2)n1` [compound 938], the logP under setting [3] was 1.61*.

In the case of `Cc1cccc(Nc2ncc(Br)c(NC3CC3)n2)c1` [compound 730], the logP under setting [3] is 2.07*. Take `CC(C)(C)NC(=O)Cc1cccc(Nc2ncc(Cl)c(NC3CC3)n2)c1` [compound 562]: under setting [4], the logP is on record as 1.81*.

As to `Cc1cc(Nc2ncc(Cl)c(NCC3CC3)n2)ccc1O` [compound 558], the logP under setting [4] is 1.51*. Consider `CN(C)C(=O)c1cccc(Nc2ncc(C#N)c(NC3CC3)n2)c1` [compound 614], for which the logP under setting [2] is listed as 1.83*. Consider `COc1cccc(Nc2ncc(C(F)(F)F)c(NCC3CC3)n2)c1` [compound 199], for which the logP under setting [7] is on record as 2.91*.

As for `COC(C)c1cccc(Nc2ncc(C(F)(F)F)c(NC3CC3)n2)c1` (stereo not drawn) [compound 826], under setting [8], the logP is reported as 3.16*.

On to `Clc1cnc(Nc2ccc(-c3cscn3)cc2)nc1NCC1CC1` [compound 689], for which the logP under setting [3] is 2.06*.

Regarding `CC1CC(C)CN(c2cccc(Nc3ncc(Cl)c(NC4CC4)n3)c2)C1` (stereo not drawn) [compound 528], the logP under setting [4] is 2.46*.

With `CCC(=O)c1cccc(Nc2ncc(Cl)c(NC3CC3)n2)c1` [compound 304], the logP under setting [9] is recorded as 2.25*. With `CC(C)(C)c1cccc(Nc2ncc(Br)c(NC3CC3)n2)c1` [compound 779], the logP under setting [8] was 3.14*. For the molecule `OC(c1cccc(Nc2ncc(Br)c(NC3CC3)n2)c1)C(F)(F)F` (stereo not drawn) [compound 798], under setting [8], the logP is on record as 1.94*. In the case of `O=C1CCCN1Cc1ccc(Nc2ncc(Cl)c(NC3CC3)n2)cc1` [compound 432], the logP under setting [5] was 1.36*. As for `CON(C(C)=O)c1cccc(Nc2ncc(Br)c(NC3CC3)n2)c1` [compound 849], the logP under setting [10] was 1.68**.

With `CS(=O)(=O)c1ccc(Nc2ncc(Br)c(NCC3CC3)n2)cc1` [compound 448], the logP under setting [5] is 2.09*. As to `N#Cc1ccc(Nc2ncc(C(F)(F)F)c(NC3CC3)n2)cc1` [compound 642], the logP under setting [2] is 2.99*. With `CNC(=O)c1cccc(Nc2ncc(Cl)c(NCC3CC3)n2)c1` [compound 511], the logP under setting [4] is on record as 1.44*. In the case of `C=CCNC(=O)c1ccc(Nc2ncc(Br)c(NC3CC3)n2)cc1` [compound 755], the logP under setting [3] is 1.73*.

`COc1cc(Nc2ncc(C(F)(F)F)c(NC3CC3)n2)cc(OC)c1OC` [compound 719]: the logP (HPLC on reversed-phase C 18, method **: 43° C., 0.1% aqueous phosphoric acid and acetonitrile, linear gradient 10% to 95% acetonitrile) is reported as 2.56**. Regarding `Oc1ccc(Nc2ncc(Cl)c(NC3CC3)n2)c(F)c1` [compound 294], the logP under setting [9] is reported as 1.26*. On the same count and under the same terms, to `COC(c1cccc(Nc2ncc(Br)c(NC3CC3)n2)c1)C(F)(F)F` (stereo not drawn) [compound 333] belongs 2.82*. Take `CCCCCc1ccc(Nc2ncc(Cl)c(NC3CC3)n2)cc1` [compound 1048]: under setting [6], the logP is given as 3.55*. On to `CSc1cccc(Nc2ncc(I)c(NC3CC3)n2)c1` [compound 858], for which the logP under setting [8] is recorded as 2.44*. Turning to `Oc1ccc(Nc2ncc(Br)c(NCC3CC3)n2)cc1F` [compound 464], under setting [5], the logP is on record as 1.53*.

On to `Clc1cccc(Nc2ncc(Cl)c(NC3CC3)n2)c1` [compound 1], for which, under setting [5], the logP is 2.7*. Regarding `COC(=O)c1cc(Nc2ncc(Cl)c(NC3CC3)n2)cc(C(=O)OC)c1` [compound 1001], the logP under setting [6] was 2.46*.
